Reference: ChEMBL document CHEMBL3627608, “Crystal structures of human RIP2 kinase catalytic domain complexed with ATP-competitive inhibitors: Foundations for understanding inhibitor selectivity” (Bioorg Med Chem, 2015)

What was measured:
[1] = biological target: Ribosomal protein S6 kinase alpha-1 (Homo sapiens) (UniProt Q15418); test: Inhibition of RSK1 (unknown origin) at 10 uM after 120 mins P33 radiolabeled kinase activity assay
[2] = biological target: T1, MAP kinase-activated protein kinase 5 (Homo sapiens) (UniProt Q8IW41); test: Inhibition of MAPKAPK5 (unknown origin) at 10 uM after 120 mins P33 radiolabeled kinase activity assay
T1 sequence (whole entry): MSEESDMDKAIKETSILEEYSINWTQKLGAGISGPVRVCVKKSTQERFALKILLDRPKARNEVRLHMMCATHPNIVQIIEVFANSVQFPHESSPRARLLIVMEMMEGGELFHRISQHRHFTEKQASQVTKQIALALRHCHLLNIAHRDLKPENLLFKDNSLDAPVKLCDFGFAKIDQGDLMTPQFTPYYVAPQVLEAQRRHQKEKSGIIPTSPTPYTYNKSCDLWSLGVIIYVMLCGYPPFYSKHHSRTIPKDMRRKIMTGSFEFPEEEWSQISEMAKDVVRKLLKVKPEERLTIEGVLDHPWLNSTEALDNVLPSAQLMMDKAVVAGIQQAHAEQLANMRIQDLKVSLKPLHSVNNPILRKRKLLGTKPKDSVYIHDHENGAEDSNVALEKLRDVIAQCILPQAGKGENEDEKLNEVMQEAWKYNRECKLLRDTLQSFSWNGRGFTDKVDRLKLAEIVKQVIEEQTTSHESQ

[3] = biological target: T2, Tyrosine-protein kinase Tec (Homo sapiens) (UniProt P42680); test: Inhibition of TEC (unknown origin) at 10 uM after 120 mins P33 radiolabeled kinase activity assay
T2 sequence (whole entry): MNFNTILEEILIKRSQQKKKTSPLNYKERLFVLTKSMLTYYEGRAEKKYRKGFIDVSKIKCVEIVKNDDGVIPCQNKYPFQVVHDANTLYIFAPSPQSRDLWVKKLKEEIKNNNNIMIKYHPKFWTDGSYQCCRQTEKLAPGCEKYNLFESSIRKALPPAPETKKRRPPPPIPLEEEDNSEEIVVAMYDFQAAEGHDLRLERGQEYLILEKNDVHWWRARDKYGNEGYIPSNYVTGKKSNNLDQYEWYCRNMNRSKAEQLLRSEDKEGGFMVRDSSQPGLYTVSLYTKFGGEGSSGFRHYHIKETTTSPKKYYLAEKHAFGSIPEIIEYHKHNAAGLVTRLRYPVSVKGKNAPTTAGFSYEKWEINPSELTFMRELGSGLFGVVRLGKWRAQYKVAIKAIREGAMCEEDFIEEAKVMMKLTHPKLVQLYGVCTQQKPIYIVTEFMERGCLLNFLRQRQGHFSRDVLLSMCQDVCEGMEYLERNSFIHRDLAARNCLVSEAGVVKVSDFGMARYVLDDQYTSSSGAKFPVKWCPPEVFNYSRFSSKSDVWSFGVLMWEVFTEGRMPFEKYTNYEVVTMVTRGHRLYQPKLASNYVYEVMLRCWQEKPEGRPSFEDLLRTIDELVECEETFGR

[4] = biological target: T3, Serine/threonine-protein kinase ULK2 (Homo sapiens) (UniProt Q8IYT8); test: Inhibition of ULK2 (unknown origin) at 10 uM after 120 mins P33 radiolabeled kinase activity assay
T3 sequence (whole entry): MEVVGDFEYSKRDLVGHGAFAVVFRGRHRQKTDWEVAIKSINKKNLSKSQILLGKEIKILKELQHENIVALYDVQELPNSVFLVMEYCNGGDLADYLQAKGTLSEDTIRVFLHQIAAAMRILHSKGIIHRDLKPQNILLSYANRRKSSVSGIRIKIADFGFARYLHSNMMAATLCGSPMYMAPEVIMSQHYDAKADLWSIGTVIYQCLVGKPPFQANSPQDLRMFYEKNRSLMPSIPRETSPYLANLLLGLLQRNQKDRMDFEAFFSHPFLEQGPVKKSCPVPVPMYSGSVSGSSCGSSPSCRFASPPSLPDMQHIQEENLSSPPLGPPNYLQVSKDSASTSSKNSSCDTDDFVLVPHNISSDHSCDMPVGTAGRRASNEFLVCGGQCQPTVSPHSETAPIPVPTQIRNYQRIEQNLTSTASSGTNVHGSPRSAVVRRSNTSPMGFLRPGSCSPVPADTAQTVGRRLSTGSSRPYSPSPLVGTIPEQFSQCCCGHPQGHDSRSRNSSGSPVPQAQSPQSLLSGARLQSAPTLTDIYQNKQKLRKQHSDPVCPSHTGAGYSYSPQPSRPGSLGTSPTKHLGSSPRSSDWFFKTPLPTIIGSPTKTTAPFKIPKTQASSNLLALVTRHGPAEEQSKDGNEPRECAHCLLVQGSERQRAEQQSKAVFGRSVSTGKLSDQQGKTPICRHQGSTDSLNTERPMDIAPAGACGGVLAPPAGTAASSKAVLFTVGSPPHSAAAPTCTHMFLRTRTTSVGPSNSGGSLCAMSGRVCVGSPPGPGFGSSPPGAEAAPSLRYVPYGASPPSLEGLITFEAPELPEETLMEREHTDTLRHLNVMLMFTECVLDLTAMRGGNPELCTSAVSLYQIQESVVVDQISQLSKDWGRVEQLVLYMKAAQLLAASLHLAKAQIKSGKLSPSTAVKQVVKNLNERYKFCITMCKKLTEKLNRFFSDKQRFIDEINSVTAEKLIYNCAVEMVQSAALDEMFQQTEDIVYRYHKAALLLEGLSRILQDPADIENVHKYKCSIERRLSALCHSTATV

Homo sapiens = species on record: Homo sapiens; test: Inhibition of PKG2 (unknown origin) at 10 uM after 120 mins P33 radiolabeled kinase activity assay
[5] = biological target: T4, Serine/threonine-protein kinase Sgk3 (Homo sapiens) (UniProt Q96BR1); test: Inhibition of SGK3 (unknown origin) at 10 uM after 120 mins P33 radiolabeled kinase activity assay
T4 sequence (whole entry): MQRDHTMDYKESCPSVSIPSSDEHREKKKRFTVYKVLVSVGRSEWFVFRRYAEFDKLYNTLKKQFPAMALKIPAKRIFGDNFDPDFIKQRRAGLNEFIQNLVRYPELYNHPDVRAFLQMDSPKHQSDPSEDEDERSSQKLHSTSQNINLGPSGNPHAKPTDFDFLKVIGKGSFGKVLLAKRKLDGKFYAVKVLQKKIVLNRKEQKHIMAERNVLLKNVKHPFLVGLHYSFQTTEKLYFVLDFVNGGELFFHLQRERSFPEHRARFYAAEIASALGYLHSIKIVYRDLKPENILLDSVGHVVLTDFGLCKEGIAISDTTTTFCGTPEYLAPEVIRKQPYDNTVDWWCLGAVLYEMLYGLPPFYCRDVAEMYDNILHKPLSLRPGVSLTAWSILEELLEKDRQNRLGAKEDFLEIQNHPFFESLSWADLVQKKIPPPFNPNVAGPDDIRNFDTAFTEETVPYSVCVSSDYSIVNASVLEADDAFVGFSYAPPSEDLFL

[6] = biological target: Tyrosine-protein kinase ABL1 (Homo sapiens) (UniProt P00519); test: Inhibition of ABL1 (unknown origin) at 10 uM after 120 mins P33 radiolabeled kinase activity assay
Tyrosine-protein kinase ABL1 (Homo sapiens), sequence (P00519 whole entry): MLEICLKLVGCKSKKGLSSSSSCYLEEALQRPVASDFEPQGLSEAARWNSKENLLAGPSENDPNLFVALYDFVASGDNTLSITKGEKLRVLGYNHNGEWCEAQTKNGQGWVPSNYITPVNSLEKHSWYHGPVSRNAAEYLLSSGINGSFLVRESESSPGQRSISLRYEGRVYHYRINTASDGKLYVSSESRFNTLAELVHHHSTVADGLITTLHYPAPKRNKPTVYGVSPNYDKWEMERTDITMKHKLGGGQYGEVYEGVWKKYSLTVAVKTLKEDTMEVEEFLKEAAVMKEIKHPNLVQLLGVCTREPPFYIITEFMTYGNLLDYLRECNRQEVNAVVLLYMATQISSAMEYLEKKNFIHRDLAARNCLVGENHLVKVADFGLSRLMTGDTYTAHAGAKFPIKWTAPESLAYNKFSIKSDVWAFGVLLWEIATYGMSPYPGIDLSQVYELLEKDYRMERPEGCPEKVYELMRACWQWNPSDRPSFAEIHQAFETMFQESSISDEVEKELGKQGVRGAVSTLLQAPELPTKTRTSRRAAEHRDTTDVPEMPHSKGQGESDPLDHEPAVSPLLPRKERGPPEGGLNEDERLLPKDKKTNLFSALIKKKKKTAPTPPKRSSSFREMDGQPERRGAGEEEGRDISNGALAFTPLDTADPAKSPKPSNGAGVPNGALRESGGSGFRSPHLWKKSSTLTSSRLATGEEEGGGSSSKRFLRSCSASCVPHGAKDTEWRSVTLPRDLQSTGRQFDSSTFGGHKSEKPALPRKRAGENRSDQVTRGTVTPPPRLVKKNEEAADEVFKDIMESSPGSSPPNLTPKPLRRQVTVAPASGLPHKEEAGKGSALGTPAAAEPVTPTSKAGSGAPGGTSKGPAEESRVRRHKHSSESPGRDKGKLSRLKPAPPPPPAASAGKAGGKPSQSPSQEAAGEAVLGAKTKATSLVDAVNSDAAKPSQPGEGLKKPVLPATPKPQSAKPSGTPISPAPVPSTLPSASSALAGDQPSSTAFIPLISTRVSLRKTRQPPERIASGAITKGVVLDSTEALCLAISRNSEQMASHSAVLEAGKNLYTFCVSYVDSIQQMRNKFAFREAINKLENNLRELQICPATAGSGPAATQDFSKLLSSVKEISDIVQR

[7] = biological target: Activated CDC42 kinase 1 (Homo sapiens) (UniProt Q07912); test: Inhibition of ACK1 (unknown origin) at 10 uM after 120 mins P33 radiolabeled kinase activity assay
Activated CDC42 kinase 1 (Homo sapiens), sequence (Q07912 whole entry, looked up): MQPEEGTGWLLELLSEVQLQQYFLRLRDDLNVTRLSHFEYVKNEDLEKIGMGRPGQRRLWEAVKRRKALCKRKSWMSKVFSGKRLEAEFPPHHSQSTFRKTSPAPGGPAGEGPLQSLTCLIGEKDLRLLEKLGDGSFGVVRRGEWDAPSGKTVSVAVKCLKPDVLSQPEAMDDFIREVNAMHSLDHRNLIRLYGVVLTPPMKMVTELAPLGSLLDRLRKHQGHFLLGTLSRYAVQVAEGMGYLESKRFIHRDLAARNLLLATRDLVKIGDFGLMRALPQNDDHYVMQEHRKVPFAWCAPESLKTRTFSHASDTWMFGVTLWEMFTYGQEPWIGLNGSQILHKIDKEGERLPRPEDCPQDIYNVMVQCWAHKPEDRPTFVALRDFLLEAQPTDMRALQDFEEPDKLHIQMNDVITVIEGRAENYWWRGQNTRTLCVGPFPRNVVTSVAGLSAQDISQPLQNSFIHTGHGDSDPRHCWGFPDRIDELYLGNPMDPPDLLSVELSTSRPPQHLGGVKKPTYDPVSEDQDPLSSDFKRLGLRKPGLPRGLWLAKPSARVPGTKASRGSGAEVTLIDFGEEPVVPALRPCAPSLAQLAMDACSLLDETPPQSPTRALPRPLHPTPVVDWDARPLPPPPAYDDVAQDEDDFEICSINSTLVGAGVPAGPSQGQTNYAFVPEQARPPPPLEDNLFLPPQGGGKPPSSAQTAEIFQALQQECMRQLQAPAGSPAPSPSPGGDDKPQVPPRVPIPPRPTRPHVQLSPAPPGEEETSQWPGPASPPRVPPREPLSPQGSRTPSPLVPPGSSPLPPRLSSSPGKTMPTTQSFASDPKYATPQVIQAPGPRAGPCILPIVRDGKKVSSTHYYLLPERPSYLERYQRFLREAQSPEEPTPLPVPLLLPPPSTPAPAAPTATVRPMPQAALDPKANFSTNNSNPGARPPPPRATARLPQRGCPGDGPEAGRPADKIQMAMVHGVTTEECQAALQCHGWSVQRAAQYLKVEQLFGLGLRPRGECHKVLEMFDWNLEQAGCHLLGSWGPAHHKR

Ribosomal protein S6 kinase alpha-1 (Homo sapiens), sequence (Q15418 whole entry): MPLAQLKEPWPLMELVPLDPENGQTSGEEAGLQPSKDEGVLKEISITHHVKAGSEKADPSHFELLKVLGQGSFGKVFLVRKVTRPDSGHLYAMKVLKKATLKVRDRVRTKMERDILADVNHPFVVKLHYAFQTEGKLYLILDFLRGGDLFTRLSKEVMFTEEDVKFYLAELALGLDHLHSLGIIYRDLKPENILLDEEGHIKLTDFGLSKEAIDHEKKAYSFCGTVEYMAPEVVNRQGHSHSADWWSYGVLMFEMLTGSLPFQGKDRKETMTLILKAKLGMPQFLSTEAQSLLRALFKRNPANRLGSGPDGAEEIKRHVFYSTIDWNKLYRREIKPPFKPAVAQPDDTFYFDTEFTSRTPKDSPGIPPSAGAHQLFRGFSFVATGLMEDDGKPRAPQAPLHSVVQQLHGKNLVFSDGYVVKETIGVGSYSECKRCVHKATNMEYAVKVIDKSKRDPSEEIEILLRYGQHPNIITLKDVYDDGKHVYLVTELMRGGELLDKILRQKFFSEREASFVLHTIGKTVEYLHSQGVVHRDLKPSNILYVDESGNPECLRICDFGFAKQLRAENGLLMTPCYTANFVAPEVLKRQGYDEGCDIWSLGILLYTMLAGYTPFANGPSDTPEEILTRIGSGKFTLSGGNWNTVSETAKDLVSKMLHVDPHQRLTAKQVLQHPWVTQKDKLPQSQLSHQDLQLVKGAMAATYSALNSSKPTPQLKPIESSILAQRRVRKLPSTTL

inhibition [1] [%] | inhibition [2] [%] | inhibition [3] [%] | inhibition [4] [%] | inhibition (Homo sapiens) [%] | inhibition [5] [%] | inhibition [6] [%] | inhibition [7] [%] | Structure (SMILES)
11.6 | 5.26 | 5.53 | -2.46 | -5.6 | 5.07 | 65.6 | 16.4 | COCCNC(=O)c1ccc2c(c1)nc(-c1cnc(-c3ccc(Cl)cc3)[nH]1)n2CCOC
73 | 4.25 | 89.2 | 17 | 8.73 | 3.98 | 98.1 | 96.5 | CS(=O)(=O)c1cccc(Nc2nccc(-c3sc(N4CCOCC4)nc3-c3cccc(NS(=O)(=O)c4c(F)cccc4F)c3)n2)c1
52 | -1.68 | 3.88 | -6.09 | 6.69 | 10 | 88.4 | 21.6 | CC(C)(C)c1cc(NC(=O)Nc2ccc(Oc3ccncc3)cc2)no1
